Assay results reported in publication PMC4472782, “Antibacterial Characterization of Novel Synthetic Thiazole Compounds against Methicillin-Resistant Staphylococcus pseudintermedius” (PLoS ONE, 2015).
Values after ≈ are worked out from the molar mass of the structure shown.

Assays:
[1] = test system: methicillin-sensitive Staphylococcus pseudintermedius; test: MBC determination against MSSP clinical isolates; type: cell-based; conditions: nine MSSP isolates
Method: The MBC was determined by plating 5 μL from wells on the 96-well microtiter plate (where the MIC was determined) where no growth was observed onto Tryptic soy agar (TSA) plates. […] The MBC was categorized as the concentration where ≥99% reduction in bacterial cell count was observed.

MRSP (SP3) = test: Multi-step resistance selection; type: cell-based, Staphylococcus pseudintermedius
Method: To assess the ability of MRSP to develop resistance to the thiazole compounds, a multi-step resistance selection experiment was performed, as described elsewhere. The broth microdilution method for MIC determination against a clinical isolate of MRSP (SP3) was repeated for ten passages over a period of ten days. The initial inoculum was prepared to a McFarland standard of 0.5. The solution was subsequently diluted 1:300 in MHB to reach a starting inoculum of 1 × 10^5 CFU/mL. For each subsequent passage, the inoculum for the MIC determination was adjusted to a final density of approximately 5 × 10^5 CFU/mL using the contents of a well containing a subinhibitory concentration of the compound (where bacterial growth was observed from the previous passage). Bacteria were then transferred to a new 96-well microtiter plate.

MRSP SP3 = test: Post-antibiotic effect against MRSP; type: cell-based, Staphylococcus pseudintermedius; conditions: 4 × MIC for one hour
Method: A tube containing untreated bacterial cells served as a control. Afterward, the compound/antibiotic was washed out by diluting bacteria 1:1000 in MHB. Counts of CFU for all cultures were obtained after washing. Aliquots (100 μL) of bacteria were removed every hour (for 10 hours), serially diluted in PBS, and plated on TSA plates. TSA plates were incubated for 20 hours at 37°C before CFU values were determined.

CCCCC#Cc1ccc(-c2nc(C)c(/C(C)=N/NC(=N)N)s2)cc1 [Compound 3]
MBC ([1]; Staphylococcus pseudintermedius, lowest concentration that killed 50% of isolates, read-out: MBC50): 0.71 µg/mL (≈ 2.01 µM) | MBC Range [1]: 0.18 to 1.41 µg/mL | development of resistance by MRSP (MRSP (SP3); MRSP SP3, ten passages, resistance = greater than four-fold increase in initial MIC): not able to develop resistance | shift in the MIC over ten passages (MRSP (SP3); MRSP SP3, ten serial passages): no change | MIC (MRSP (SP3); Staphylococcus pseudintermedius, read-out: initial MIC): 1.41 µg/mL (≈ 3.99 µM) | Post-antibiotic Effect (MRSP SP3): >9 h
